Eleven compounds from US10584121B2 (Merck Sharp & Dohme Corp., priority 2015, dated 2020) can be followed below.

The nature of the first data set: Rat PK: plasma clearance after PO and IV dosing. It is filed as in vivo. The note with it: fasted male Wistar Han rats; IV 0.5 mg/kg or 0.05 mg/kg; 20/60/20 DMSO/PEG400/H2O. The method, then:
Experimental Procedure for Collecting Rat PK:
Pharmacokinetic parameters were determined following PO and IV dosing at 1 mg/kg and 0.5 mg/kg or 0.05 mg/kg respectively in fasted male Wistar Han rats. Compounds were formulated for both PO and IV dosing in 20/60/20 DMSO/PEG400/H2O. Plasma samples obtained from dosed animals were acidified by adding 30 μL of 2% formic acid to 100 μL of plasma to stabilize potential acyl-glucuronide metabolites. Sample clean-up was carried out by means of a single step protein precipitation technique by adding 200 μL of acetonitrile to 50 μL aliquots of individual subject samples. Samples were mixed by vortex for homogeneity and then subjected to centrifugation at 3500 rpm for 10 min. The supernatant (200 μL) was collected and an aliquot was injected into the LC-MS/MS for analysis. Pharmacokinetic parameters were calculated using established non-compartmental methods. The area under the plasma concentration versus time curve (AUC) was determined using the Watson software (version 7.3) or Phoenix Professional (version 6.2.1), with linear trapezoidal interpolation in the ascending slope and logarithmic trapezoidal interpolation in the descending slope. The portion of the AUC from the last measurable concentration to infinity was estimated from the equation, Ct/kel, where Ct represents the last measurable concentration and kel is the elimination rate constant. The latter was determined from the concentration versus time curve by linear regression at the terminal phase of the semi-logarithmic plot.
Turning to `O=C(O)c1ccc(-c2nn(C(=O)c3c(Cl)cccc3C(F)(F)F)c3cccnc23)c(F)c1` [historical compound, reference compound], the “Rat plasma clearance (Clp)” value came out at 76 mL/min/kg.

The same data set, now with this note: rat, plasma; fasted male Wistar Han rats; IV 0.5 mg/kg or 0.05 mg/kg; 20/60/20 DMSO/PEG400/H2O; read-out: Rat plasma clearance (Clp).
Turning to `O=C(O)c1ccc(-c2nn(C(=O)c3c(C4(C(F)F)CC4)ccc(F)c3Cl)c3cccnc23)c(F)c1` [Example 1H, 4-(1-(2-chloro-6-(1-(difluoromethyl)cyclopropyl)-3-fluorobenzoyl)-1H-pyrazolo[4,3-b]pyridin-3-yl)-3-fluorobenzoic acid], the clearance came to 16 mL/min/kg.

As for `O=C(O)c1ccc(-c2nn(C(=O)c3c(Cl)cccc3C3(C(F)F)CC3)c3cccnc23)c(F)c1` [Example 1D, 4-(1-(2-chloro-6-(1-(difluoromethyl)cyclopropyl)benzoyl)-1H-pyrazolo[4,3-b]pyridin-3-yl)-3-fluorobenzoic acid], the clearance was 10 mL/min/kg.

`O=C(O)c1ccc(-c2nn(C(=O)c3c(Cl)cccc3C3(C(F)(F)F)CC3)c3cccnc23)c(F)c1` [Example 1A, 4-(1-(2-chloro-6-(1-(trifluoromethyl)cyclopropyl)benzoyl)-1H-pyrazolo[4,3-b]pyridin-3-yl)-3-fluorobenzoic acid]: the clearance came to 6 mL/min/kg.

Consider `Cc1c(F)ccc(C2(C(F)(F)F)CC2)c1C(=O)n1nc(-c2ccc(C(=O)O)cc2F)c2ncccc21` [Example 1I, 3-fluoro-4-(1-(3-fluoro-2-methyl-6-(1-(trifluoromethyl)cyclopropyl)benzoyl)-1H-pyrazolo[4,3-b]pyridin-3-yl)benzoic acid], for which the clearance stood at 18 mL/min/kg.

Take `O=C(O)c1ccc(-c2cn(C(=O)c3c(Cl)cccc3C3(C(F)F)CC3)c3cccnc23)c(F)c1` [Example 1J]: the clearance amounted to 5 mL/min/kg.

In the case of `O=C(O)c1ccc(-c2cn(C(=O)c3c(Cl)cccc3C3(C(F)(F)F)CC3)c3cccnc23)c(F)c1` [Example 1B, 4-(1-(2-chloro-6-(1-(trifluoromethyl)cyclopropyl)benzoyl)-1H-pyrrolo[3,2-b]pyridin-3-yl)-3-fluorobenzoic acid], the clearance was determined as 5 mL/min/kg.

For `O=C(O)c1ccc(-c2nn(C(=O)c3c(C(F)F)cccc3C3(C(F)(F)F)CC3)c3cccnc23)c(F)c1` [Example 1G, 4-(1-(2-(difluoromethyl)-6-(1-(trifluoromethyl)cyclopropyl)benzoyl)-1H-pyrazolo[4,3-b]pyridin-3-yl)-3-fluorobenzoic acid], the clearance turned out to be 5 mL/min/kg.

Turning to `O=C(O)c1ccc(-c2nn(C(=O)c3c(Cl)cccc3C3(CF)CC3)c3cccnc23)c(F)c1` [Example 1E, 4-(1-(2-chloro-6-(1-(fluoromethyl)cyclopropyl)benzoyl)-1H-pyrazolo[4,3-b]pyridin-3-yl)-3-fluorobenzoic acid], the clearance came out at 16 mL/min/kg.

`Cc1cccc(C2(C(F)(F)F)CC2)c1C(=O)n1nc(-c2ccc(C(=O)O)cc2F)c2ncccc21` [Example 1C, 3-fluoro-4-(1-(2-methyl-6-(1-(trifluoromethyl)cyclopropyl)benzoyl)-1H-pyrazolo[4,3-b]pyridin-3-yl)benzoic acid]: the clearance was determined as 21 mL/min/kg.

For `O=C(O)c1ccc(-c2nn(C(=O)c3c(C4(C(F)(F)F)CC4)ccc(F)c3Cl)c3cccnc23)c(F)c1` [Example 1F, 4-(1-(2-chloro-3-fluoro-6-(1-(trifluoromethyl)cyclopropyl)benzoyl)-1H-pyrazolo[4,3-b]pyridin-3-yl)-3-fluorobenzoic acid], the clearance amounted to 8 mL/min/kg.
